Several values for one entry are separate records, joined by “and”; a condition that tells them apart may be missing. Equal values may be shown once. Inconclusive results and toxic doses are left out.

The assay relates to P388 leukemia ip, CD2F1 mice, survival T/C. In words: NCI In Vivo Anticancer Drug Screen. Data for tumor model P388 Leukemia (intraperitoneal) in CD2F1 (CDF1) mice. As to conditions: endpoint: median survival time, higher = longer survival. Summed up: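 Mice carrying the transplanted tumor received test compound or vehicle. Survival was recorded in each group, and the value is the treated-group measurement divided by that of the vehicle-treated control group.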

[1] abbreviates: dose: 100.0 mg/kg/injection, schedule: Q04DX003 (ip), vehicle: saline with Tween-80.
The mark [2] stands for this setting: dose: 200.0 mg/kg/injection, schedule: Q04DX003 (ip), vehicle: saline with Tween-80.
[3] abbreviates: dose: 400.0 mg/kg/injection, schedule: Q04DX003 (ip), vehicle: saline with Tween-80.
Setting [4] is: dose: 50.0 mg/kg/injection, schedule: Q01DX005 (ip), vehicle: saline with Tween-80.
Where [5] appears, read: dose: 100.0 mg/kg/injection, schedule: Q01DX005 (ip), vehicle: saline with Tween-80.
The mark [6] stands for this setting: dose: 200.0 mg/kg/injection, schedule: Q01DX005 (ip), vehicle: saline with Tween-80.
[7] abbreviates: dose: 25.0 mg/kg/injection, schedule: Q01DX009 (ip), vehicle: other.
Where [8] appears, read: dose: 50.0 mg/kg/injection, schedule: Q01DX009 (ip), vehicle: other.
The mark [9] stands for this setting: dose: 100.0 mg/kg/injection, schedule: Q01DX009 (ip), vehicle: other.
Where [10] appears, read: dose: 400.0 mg/kg/injection, schedule: Q01DX009 (ip), vehicle: other.
Where [11] appears, read: dose: 100.0 mg/kg/injection, schedule: Q01DX009 (ip), vehicle: saline with Tween-80.
Where [12] appears, read: dose: 200.0 mg/kg/injection, schedule: Q01DX009 (ip), vehicle: saline with Tween-80.
Setting [13] is: dose: 400.0 mg/kg/injection, schedule: Q01DX009 (ip), vehicle: saline with Tween-80.
Where [14] appears, read: dose: 50.0 mg/kg/injection, schedule: Q01DX009 (ip), vehicle: saline with Tween-80.
Where [15] appears, read: dose: 60.0 mg/kg/injection, schedule: Q01DX005 (ip), vehicle: saline with Tween-80.
[16] abbreviates: dose: 120.0 mg/kg/injection, schedule: Q01DX005 (ip), vehicle: saline with Tween-80.
Where [17] appears, read: dose: 240.0 mg/kg/injection, schedule: Q01DX005 (ip), vehicle: saline with Tween-80.

As to `CCOC(=O)C1(COS(=O)(=O)c2ccc(C)cc2)C(=O)Nc2ccccc21` (centres undefined), the T/C (dose: 50.0 mg/kg/injection, schedule: Q01DX009 (ip), vehicle: Klucel (hydroxypropylcellulose) (HPC)) was 100 % of control; the T/C (dose: 100.0 mg/kg/injection, schedule: Q01DX009 (ip), vehicle: Klucel (hydroxypropylcellulose) (HPC)) was 100 % of control; the T/C (dose: 200.0 mg/kg/injection, schedule: Q01DX009 (ip), vehicle: Klucel (hydroxypropylcellulose) (HPC)) is 97 % of control.
In the case of `COc1cc(NS(C)(=O)=O)ccc1Nc1c2ccc([N+](=O)[O-])cc2nc2c(C)c(C)ccc12`, the T/C (dose: 0.04 mg/kg/injection, schedule: Q01DX009 (ip), vehicle: saline with Tween-80) is 120 % of control; the T/C (dose: 0.07 mg/kg/injection, schedule: Q01DX009 (ip), vehicle: saline with Tween-80) is 120 % of control; the T/C (dose: 1.13 mg/kg/injection, schedule: Q01DX009 (ip), vehicle: saline with Tween-80) was 157 % of control; the T/C (dose: 6.25 mg/kg/injection, schedule: Q01DX009 (ip), vehicle: saline with Tween-80) is 254 % of control; the T/C (dose: 8.8 mg/kg/injection, schedule: Q04DX003 (ip), vehicle: saline with Tween-80) is 218 % of control; the T/C (dose: 12.5 mg/kg/injection, schedule: Q01DX009 (ip), vehicle: saline with Tween-80) is 291 % of control. The T/C is 209 % of control (dose: 13.2 mg/kg/injection, schedule: Q04DX003 (ip), vehicle: saline with Tween-80); 231 % of control (dose: 20.0 mg/kg/injection, schedule: Q04DX003 (ip), vehicle: saline with Tween-80); 263 % of control (dose: 30.0 mg/kg/injection, schedule: Q04DX003 (ip), vehicle: saline with Tween-80).
In the case of `CC1C=CC(C)N(c2nnnn2C)N1c1nnnn1C` (centres undefined), the T/C is 116 % of control under setting [1], 106 % of control under setting [2] and 100 % of control under setting [3].
Regarding `CN1OC(=O)OC(C)(c2ccccc2)C1=O` (centres undefined), the T/C was 98 % of control under setting [4], 97 % of control under setting [5] and 97 % of control under setting [6].
Take `CC(C)C1=CC2=CCC3C(C)(C(N)=O)CCCC3(C)C2CC1CC#N` (centres undefined): the T/C under setting [1] is 95 % of control, the T/C under setting [2] was 91 % of control and the T/C under setting [3] was 91 % of control.
For `O=[N+]([O-])c1ccc(N=Nc2c(-c3ccccc3)nn(C(=S)S)c2-c2ccccc2)cc1`, the T/C is 92 % of control (dose: 100.0 mg/kg/injection, schedule: Q04DX002 (ip), vehicle: saline with Tween-80); 97 % of control (dose: 200.0 mg/kg/injection, schedule: Q04DX002 (ip), vehicle: saline with Tween-80); 101 % of control (dose: 400.0 mg/kg/injection, schedule: Q04DX002 (ip), vehicle: saline with Tween-80).
Take `COC(=O)C(CSCc1ccccc1)NC(=O)CCNC(=O)OCc1ccccc1` (centres undefined): the T/C is 103 % of control under setting [7]; 103 % of control under setting [8]; 96 % of control under setting [9]; 90 % of control (dose: 200.0 mg/kg/injection, schedule: Q01DX009 (ip), vehicle: other); 97 % of control under setting [10].
On to `CC12C=C(C(=O)c3ccccc3)C(CC1)C2(C)C` (centres undefined), for which the T/C is 100 % of control under setting [11], 95 % of control under setting [12] and 90 % of control under setting [13].
As for `CN(c1ccccc1)C1C=C(c2ccccc2)OC(=O)C1(Cl)Cl` (centres undefined), the T/C under setting [14] is 92 % of control, the T/C under setting [11] is 95 % of control and the T/C under setting [12] is 98 % of control.
As for `CCOC(=O)C1C/C(=N\OS(=O)(=O)c2ccc(C)cc2)c2ccc(OC)c(OC)c2C1` (centres undefined), the T/C by setting is: under setting [7], 92 % of control; under setting [8], 89 % of control; under setting [9], 87 % of control; under setting [10], 97 % of control.
On to `CN=C(N)N/N=C(\C)c1ccc(-c2ccccc2)cc1`, for which the T/C by setting is: (dose: 25.0 mg/kg/injection, schedule: Q04DX002 (ip), vehicle: saline with Tween-80) 105 % of control; (dose: 50.0 mg/kg/injection, schedule: Q04DX002 (ip), vehicle: saline with Tween-80) 106 % of control.
On to `CCOC(=O)/C(=C/Nc1ccc(OCc2ccccc2)cc1)NC(=O)c1ccccc1`, for which the T/C was 87 % of control under setting [14]; 86 % of control (dose: 50.0 mg/kg/injection, schedule: Q01DX009 (ip), vehicle: saline); 86 % of control under setting [11]; 86 % of control (dose: 100.0 mg/kg/injection, schedule: Q01DX009 (ip), vehicle: saline); 87 % of control under setting [12]; 88 % of control (dose: 200.0 mg/kg/injection, schedule: Q01DX009 (ip), vehicle: saline). Further, the T/C under setting [13] was 97 % of control and the T/C (dose: 400.0 mg/kg/injection, schedule: Q01DX009 (ip), vehicle: saline) is 97 % of control.
`O=C1CC23c4ccccc4N4C(=O)CC5OCC=C6CN1C2CC6C5C43` (centres undefined): the T/C is, setting by setting: under setting [15], 101 % of control; under setting [16], 92 % of control; under setting [17], 92 % of control.
`Cc1ccc(N2CC3CC4(C)C=CC3(C2)O4)cc1` (centres undefined): the T/C by setting is: under setting [15], 103 % of control; under setting [16], 111 % of control; under setting [17], 98 % of control.
As to `CC/C(=C(/O)c1ccccc1)c1nc2ccc(Cl)cc2[nH]c1=O`, the T/C (dose: 60.0 mg/kg/injection, schedule: Q01DX005 (ip), vehicle: Klucel + Tween-80) is 100 % of control; the T/C (dose: 120.0 mg/kg/injection, schedule: Q01DX005 (ip), vehicle: Klucel + Tween-80) was 93 % of control; the T/C (dose: 240.0 mg/kg/injection, schedule: Q01DX005 (ip), vehicle: Klucel + Tween-80) is 98 % of control.
Regarding `COC(=O)c1c(C(N)=O)c(C)n(NC(=O)Nc2ccccc2)c1C`, the T/C is 96 % of control under setting [4], 89 % of control under setting [5] and 94 % of control under setting [6].
Consider `Cc1cn2c(n1)sc1ccccc12`, for which the T/C is 96 % of control under setting [4], 95 % of control under setting [5] and 95 % of control under setting [6].
Take `COC(=O)[C@@H]1CCCN1C(=O)C(=O)N1CCC[C@H]1C(=O)OC`: the T/C is 108 % of control (dose: 100.0 mg/kg/injection, schedule: Q01DX001 (ip), vehicle: saline with Tween-80); 103 % of control (dose: 200.0 mg/kg/injection, schedule: Q01DX001 (ip), vehicle: saline with Tween-80); 103 % of control (dose: 400.0 mg/kg/injection, schedule: Q01DX001 (ip), vehicle: saline with Tween-80).
With `CN(Cc1cnc2nc(N)nc(N)c2n1)c1ccc(C(=O)NC(CCC(=O)OCc2c(Cl)cccc2Cl)C(=O)OCc2c(Cl)cccc2Cl)cc1` (centres undefined), the T/C by setting is: (dose: 3.75 mg/kg/injection, schedule: Q01DX005 (ip), vehicle: saline with Tween-80) 168 % of control; (dose: 7.5 mg/kg/injection, schedule: Q01DX005 (ip), vehicle: saline with Tween-80) 207 % of control and 237 % of control; (dose: 15.0 mg/kg/injection, schedule: Q01DX005 (ip), vehicle: saline with Tween-80) 105 % of control and 92 % of control; (dose: 30.0 mg/kg/injection, schedule: Q01DX005 (ip), vehicle: saline with Tween-80) 87 % of control.
Take `COC(=O)C(=O)C1(c2ccccc2)C(=O)C(c2ccccc2)=CC1O` (centres undefined): the T/C was 104 % of control (dose: 60.0 mg/kg/injection, schedule: Q01DX005 (ip), vehicle: saline + Tween-80 + alcohol); 101 % of control (dose: 120.0 mg/kg/injection, schedule: Q01DX005 (ip), vehicle: saline + Tween-80 + alcohol); 100 % of control (dose: 240.0 mg/kg/injection, schedule: Q01DX005 (ip), vehicle: saline + Tween-80 + alcohol).

The values are drawn from PubChem BioAssay AID330 (DTP/NCI, 2004).
